Results from US9169481B2, “Cell-mediated directed evolution” (priority 2006, dated 2015).
Where “and” joins values, the source holds several entries; their conditions need not be identical. Identical values can stand only once.

Experiments:
[1] = system: O=[N+]([O-])c1ccc(O[C@@H]2O[C@H](CO)[C@@H](O[C@@H]3O[C@H](CO)[C@@H](O)[C@H](O)[C@H]3O)[C@H](O)[C@H]2O)cc1; test: Steady-state kinetics of pNPC hydrolysis (release of p-nitrophenol), CelT = CelV; format: biochemical, Erwinia carotovora; details: other: pNPC, pH 7, room temperature
Excerpt: (§1) The DNA shuffling vector, pPPY2148, was constructed by digesting p425Met25 (ATCC) with HindIII and PstI and introducing an 800 bp stuffer flanked by SfiI sites. The catalytic domain of four family 5 cellulases with 77-90% sequence identity, E. carotovora CelN (Olsen et al., 1996, Biotechnology (N Y) 14:71-76), CelVI (Mae and Palva, 1995, Mol Gen Genet. 247:17-26), CelA (Park et al., 1997, Biochem Biophys Res Commun. 241:636-641) and CelT (cloned from the E. carotovora subs. atroceptica (Bell et al., 2004, Proc Natl Acad Sci USA. 101: 11105-11110) genomic DNA) were cloned into pPY2148 to create plasmids pPPY2230, pPPY2232, pPPY2234 and pPPY2236 respectively. A ^6His-tag was added at the C-terminus of the four parent genes to facilitate protein purification after selection. The catalytic domain of these cellulases was identified by sequence comparison with the catalytic domain of Bacillus agaradhaerens Cel5A, which has 68% sequence identity at the amino acid level with the parent genes and which three dimensional X-ray structure is available (Davies et al., 1998, Biochemistry 37: 1926-1932; Davies et al., 1998, Biochemistry 37: 11707-11713; Varrot et al., 2000, J Mol Biol. 297: 819-828; Varrot et al., 2001, Acta Crystallogr D Biol Crystallogr. 57: 1739-1742; Varrot and Davies, 2003, Acta Crystallogr D Biol Crystallogr. 59: 447-452). The cellulase genes were shuffled using standard procedures with slight variations (Zhao and Arnold, 1997, Nucleic Acids Res. 25: 1307-1308). To introduce the shuffled product into the shuffling vector via homologous recombination, 30 bp homology to the shuffling vector was introduced at the 5′ and 3′ end of the shuffled product by carrying an extra amplification step of the shuffling product primers VC1658-VC1659. 7.5 ng of shuffled product (1.4E11 shuffled product molecules assuming each base pair is 330M and the shuffled product was 1000 bp) was used as a template in a 100 ul amplification reaction. The product was purified in a 2% agarose gel.
(§2) Ten colonies selected on day 8 and 9 were characterized in vitro using para-nitrophenyl cellobioside (pNPC) as a substrate. The cellulase chimeras were amplified from the shuffling vector using primers PPY100 and PPY103 and subcloned into the T7-expression vectors pAED4 between NdeI and HindIII sites. The cellulase chimeras were over expressed in E. coli and purified using a Nickel affinity column. Protein concentration was determined using the extinction coefficient of the parent genes ε=76890 and absorption at A280. To determine the kinetic constants for the hydrolysis of pNPC, the cellulase chimeras were incubated at room temperature in phosphate buffer (25 mM K2HPO4, 100 mM NaCl, pH=7) containing various concentrations of the substrate, and the release of p-nitrophenol (εpH=7=4000M^−1 cm^−1, A420) was recorded continuously in a SpectraMax Plus 384 spectrophotometer.
(§3) The three starting cellulases and the improved cellulase variants were subcloned into the E. coli T7 vector, pAED4, between NdeI and HindIII sites to give vectors pPPY2256 (CelN), pPPY2258 (CelA), pPPY2257 (CelV), pPPY2291 (Cel—3.7), and pPPY2292 (Cel—5.7). The cellulases were purified using Quick spin Ni-NTA affinity column (Qiagen). Protein concentration was determined using the extinction coefficient of the starting genes (ε=76670) and absorption at 280 nm. […] The release of p-nitrophenol (εpH 7=4000M−1 cm−1, A420) was recorded continuously in a SpectraMax Plus 384 spectrophotometer at 420 nm.

[2] = system: O=[N+]([O-])c1ccc(O[C@@H]2O[C@H](CO)[C@@H](O[C@@H]3O[C@H](CO)[C@@H](O)[C@H](O)[C@H]3O)[C@H](O)[C@H]2O)cc1; test: Steady-state kinetics of pNPC hydrolysis (release of p-nitrophenol), CelN; format: biochemical, Erwinia carotovora; details: other: pNPC, pH 7, room temperature
Excerpt: as §1, §2, §3

[3] = target: lipocalin (de novo selected); details: Beste et al., 1999; read-out: dissociation constant; cited from earlier work
[4] = system: Erwinia carotovora CelN/CelA/CelV shuffled variant Cellulase 1 (CELLVAR2, Colony 2, Cel_3.7), vs CelN: S126N, D157E, Q186L, L193M, V2541, T288A, E295A, G30A …; test: Steady-state kinetics of pNPC hydrolysis, Cellulase 1; format: biochemical
Description: as §2
(§4) The three starting cellulases and the improved cellulase variants were subcloned into the E. coli T7 vector, pAED4, between NdeI and HindIII sites to give vectors pPPY2256 (CelN), pPPY2258 (CelA), pPPY2257 (CelV), pPPY2291 (Cel—3.7), and pPPY2292 (Cel—5.7). The cellulases were purified using Quick spin Ni-NTA affinity column (Qiagen). Protein concentration was determined using the extinction coefficient of the starting genes (ε=76670) and absorption at 280 nm. To determine the kinetic constants for the hydrolysis of pNPC, the cellulase chimeras were incubated at room temperature in phosphate buffer (25 mM K2HPO4, 100 mM NaCl, pH 7) containing seven different concentrations of pNPC ranging from 12 mM to 0.185 mM. The release of p-nitrophenol (εpH 7=4000M−1 cm−1, A420) was recorded continuously in a SpectraMax Plus 384 spectrophotometer at 420 nm.
Cel—3.7 (cellulase 1) contains nine crossovers. […] A homology model of Cel—3.7 (cellulase 1) was made, utilizing the B. agaradherans Cel5A structure (SwissProt: O85465; PDB: 1h5v) with the inhibitor methyl 4,4II,4III,4IV-tetrathio-α-cellopentoside bound to the active site, using Swiss-Model (FIG. 28A). The eight mutations accessible with the homology model map onto the surface of the enzyme, away from the extended carbohydrate binding site.

[5] = system: Erwinia carotovora shuffled cellulase variant Cellulase 8, SEQ ID NO:16; test: Steady-state kinetics of pNPC hydrolysis, Cellulase 8; format: biochemical; details: pH 7, room temperature
Description: as §2, §4

[6] = target: Erwinia carotovora cellulase CelV (Cellulase V; = CelT, Cellulase T), catalytic domain, parent (Pectobacterium atrosepticum, UniProt Q6D5R0); test: Steady-state kinetics of pNPC hydrolysis (release of p-nitrophenol), CelT = CelV; format: biochemical; details: pH 7, room temperature
Excerpt: as §1, §2, §3

[7] = system: Erwinia carotovora CelN/CelA/CelV shuffled variant Cellulase 2 (Cel_5.7), vs CelN: A86V, S126N, E154D, T172S, C208R, T262S, A267T, A272T; SEQ ID NO:6; test: Steady-state kinetics of pNPC hydrolysis, Cellulase 2; format: biochemical
Description: as §2, §4
A homology model of Cel—5.7 (cellulase 2) was made, again utilizing the same structure of B. agaradherans Cel5A, using Swiss-Model (FIG. 28b)^38. Four mutations are in the C-terminus loops that compose the extended carbohydrate binding site, while the other 4 map onto the surface of the enzyme. Although mutation T172S is located in C-terminus loop 5, it is 15 Å away from closest hexose ring in the substrate inhibitor. Mutations T262S, A267T, A272T are located in C-terminus loop 8. The mutation T262S is the closest to the substrate inhibitor, 6 Å away from the 6′-OH of the hexose ring in the −3 subsite. […] This mutation is located at the N-terminus of the barrel and points towards the solvent.

[8] = target: Erwinia carotovora cellulase CelN (Cellulase N), catalytic domain, parent (Pectobacterium atrosepticum, UniProt Q59394); test: Steady-state kinetics of pNPC hydrolysis (release of p-nitrophenol), CelN; format: biochemical; details: pH 7, room temperature
Excerpt: as §1, §2, §3

[9] = system: Erwinia carotovora shuffled cellulase variant Cellulase 4 (CELLVAR1, Colony 1), SEQ ID NO:3; test: Steady-state kinetics of pNPC hydrolysis, Cellulase 4; format: biochemical; details: pH 7, room temperature
Description: as §2, §4

[10] = system: Erwinia carotovora shuffled cellulase variant Cellulase 7, SEQ ID NO:14; test: Steady-state kinetics of pNPC hydrolysis, Cellulase 7; format: biochemical; details: pH 7, room temperature
Description: as §2, §4

[11] = system: Erwinia carotovora shuffled cellulase variant Cellulase 3, SEQ ID NO:8; test: Steady-state kinetics of pNPC hydrolysis, Cellulase 3; format: biochemical; details: pH 7, room temperature
Description: as §2, §4

[12] = system: Erwinia carotovora shuffled cellulase variant Cellulase 6, SEQ ID NO:12; test: Steady-state kinetics of pNPC hydrolysis, Cellulase 6; format: biochemical; details: pH 7, room temperature
Description: as §2, §4

[13] = system: Erwinia carotovora shuffled cellulase variant Cellulase 5, SEQ ID NO:10; test: Steady-state kinetics of pNPC hydrolysis, Cellulase 5; format: biochemical; details: pH 7, room temperature
Description: as §2, §4

[14] = system: Erwinia carotovora cellulase CelA (Cellulase A), catalytic domain, parent; test: Steady-state kinetics of pNPC hydrolysis (release of p-nitrophenol), CelA; format: biochemical; details: pH 7, room temperature
Excerpt: as §1, with “To introduce the shuffled product into the shuffling vector via homologous recombination, 30 bp homology to the shuffling vector was introduced at the 5′ and 3′ end of the shuffled product by carrying an extra amplification step of the shuffling product primers VC1658-VC1659. 7.5 ng of shuffled product (1.4E11 shuffled product molecules assuming each base pair is 330M and the shuffled product was 1000 bp) was used as a template in a 100 ul amplification reaction. The product was purified in a 2% agarose gel.” left out
as §2, with “The cellulase chimeras were amplified from the shuffling vector using primers PPY100 and PPY103 and subcloned into the T7-expression vectors pAED4 between NdeI and HindIII sites. The cellulase chimeras were over expressed in E. coli and purified using a Nickel affinity column.” left out
as §3, with “The cellulases were purified using Quick spin Ni-NTA affinity column (Qiagen).” left out

[15] = system: reverse yeast three-hybrid strain; test: 5-FOA effect on growth of reverse yeast three-hybrid strain; format: cell-based, Saccharomyces cerevisiae; details: 5-FOA concentrations beyond 0.3%
Excerpt: First, we recombined the URA3 gene at the ura3-52 locus of our chemical complementation yeast strain, FY251, and selected for Ura^+ phenotype on medium lacking uracil to create VC2169. Next, the vectors carrying the DBD-DHFR and GR-B42 constructs were introduced into VC2169 and selected on plates lacking uracil, histidine, and tryptophan to create VC2291. Finally, we introduced the LexA(4op) and the Spo13 promoter upstream of the URA3 gene and selected for Ura^− phenotype on medium containing 5-FOA. This selection provided numerous reverse three-hybrid colonies. Three colonies were used to optimize the reverse yeast three-hybrid system for the highest fold increase in activation in the presence of 10 μM Mtx-Dex by measuring the difference between cell survival and cell death. Mtx-Dex was used, instead of Mtx-Cel-Dex, for the optimization of the system as the cellulose linker is not necessary for the system's functioning, and the synthesis of Mtx-Dex is simpler than that of Mtx-Cel-Dex. The system was optimized by varying the level of galactose, which affects the concentration of DBD-DHFR and AD-GR in the system, and 5-FOA, which controls the toxicity level of the reporter gene. Galactose levels ranging from 1 to 2% and 5-FOA concentrations ranging from 0.1 to 0.5% were tested simultaneously. […]

[16] = system: D-2-deoxyribose-5-phosphate aldolase (DERA) variant; details: directed evolution with in vitro screen; DeSantis et al., 2003; cited from earlier work

Erwinia carotovora cellulase CelV (Cellulase V; = CelT, Cellulase T), catalytic domain, parent (Pectobacterium atrosepticum SCRI1043)
Km [1]: 4600 µM
kcat [1]: 1100 s⁻¹
kcat/Km [1]: 237000 M⁻¹ s⁻¹

Erwinia carotovora cellulase CelN (Cellulase N), catalytic domain, parent (Pectobacterium atrosepticum)
Km [2]: 3400 µM
kcat [2]: 1300 s⁻¹
kcat/Km [2]: 374000 M⁻¹ s⁻¹

O=C1OC2(c3ccc(O)cc3Oc3cc(O)ccc32)c2ccccc21 [fluorescein]
Kd [3]: 0.065 µM

O=[N+]([O-])c1ccc(O[C@@H]2O[C@H](CO)[C@@H](O[C@@H]3O[C@H](CO)[C@@H](O)[C@H](O)[C@H]3O)[C@H](O)[C@H]2O)cc1 [pNPC, p-nitrophenyl cellobioside]
Kcat ([4]; pH 7, room temperature): 4300 s⁻¹
Kcat/KM ([4]; pH 7, room temperature): 1.3e+06 M⁻¹ s⁻¹
Kcat/Km ([4]; pH 7, room temperature): 1.4 × 10^6 sec^−1M^−1 and 1.4 × 10^6 M^−1sec^−1
Km ([4]; pH 7, room temperature): 3200 µM
increase in catalytic efficiency over the best starting cellulase, CelN ([4]; relative to CelN): 3.6 fold and 3.7 fold
Kcat [5]: 840 s⁻¹
Kcat/Km [5]: 200000 M⁻¹ s⁻¹
Km [5]: 4300 µM
Kcat [6]: 1100 s⁻¹
Kcat/Km [6]: 240000 M⁻¹ s⁻¹
Kcat ([7]; pH 7, room temperature): 5200 s⁻¹
Kcat/Km ([7]; pH 7, room temperature): 2.1 × 10^6 sec^−1M^−1 and 2.1 × 10^6 M^−1sec^−1
Km ([7]; pH 7, room temperature): 2500 µM and 2470 µM
increase in catalytic efficiency over the best starting cellulase, CelN ([7]; relative to CelN): 5.3 fold and 5.7 fold
Kcat [8]: 1300 s⁻¹
Kcat/Km [8]: 370000 M⁻¹ s⁻¹
Kcat [9]: 16000 s⁻¹
Kcat/KM [9]: 1.2e+07 M⁻¹ s⁻¹
Kcat/Km [9]: 1.1e+07 M⁻¹ s⁻¹
Km [9]: 1300 µM
Kcat [10]: 110 s⁻¹
Kcat/Km [10]: 8120 M⁻¹ s⁻¹ and 8100 M⁻¹ s⁻¹
Km [10]: 14000 µM
Kcat [11]: 5000 s⁻¹
Kcat/Km [11]: 1.4 × 10^6 sec^−1M^−1 and 1.4 × 10^6 M^−1sec^−1
Km [11]: 3600 µM
Kcat [12]: 210 s⁻¹
Kcat/Km [12]: 220000 M⁻¹ s⁻¹
Km [12]: 960 µM and 1000 µM
Kcat [13]: 6700 s⁻¹
Kcat/Km [13]: 4.5e+06 M⁻¹ s⁻¹
Km [13]: 1500 µM
Kcat [14]: 1400 s⁻¹
Kcat/KM [14]: 193000 M⁻¹ s⁻¹
Kcat/Km [14]: 192000 M⁻¹ s⁻¹
Km [14]: 7200 µM

O=C(O)c1[nH]c(=O)[nH]c(=O)c1F [5-FOA, 5-fluoroorotic acid]
effect on cell growth [15]: detrimental for cell growth

O=C[C@H](O)CO [D-glyceraldehyde]
improvement in catalytic efficiency [16]: 2.5 fold
